Source: US20140275049A1, “SUBSTITUTED PYRAZOLE ANALOGS As RAR ANTAGONISTS” (Eli Lilly and Company, priority 2011, published 2014)

Columns and labels:
[1] = test system: MIA model of pain; test: Monosodium iodoacetate (MIA) model of pain; format: in vivo, rat; conditions: rats, dose of 0.1 mg/kg, dosed once on day 9 post MIA, measured 2 h post dosing
Text: The injection of monoiodoacetic acid (MIA) into the knee joint of rats produces an acute inflammatory insult, which then develops into chronic degeneration of the joint tissues in the injected joint. The pain resulting from the joint injury can be measured via differential weight bearing of the hind legs using an incapacitance tester. […] Efficacy is routinely measured by the ability of a compound to partially normalize weight distribution. The maximal efficacy that can be achieved in the standard MIA is dependent on the mechanism being studied; however, for many mechanisms the maximal efficacy achieved results in a 25%-50% reduction in the weight bearing differential.
Use Male Lewis rats approximately 150-170 g and between 6-8 weeks of age. Let the animals acclimate to the environment for at least 72 h. […]
Incapacitance Tester Readings—Incapacitance Testers (Columbus Instruments International, Columbus, Ohio) for weight bearing measurements. […] A total of three one second readings are taken to reflect the amount of pressure exerted on both the left and right hind paw while the rat is positioned in the chamber. The force exerted by each hind paw is measured in grams and calculated as the left hind paw weight distribution-right hind paw weight distribution. Thus, the final paw weight distribution for each animal is an average of the three one second readings. […]

[2] = biological target: T1, RARα (Homo sapiens, UniProt P10276); test: RARα binding assay (SPA, 3H-TTNPB competition); conditions: RARα/RXRα heterodimer
T1 construct: made in house; host or cells: baculovirus expression system
T1 sequence (P10276 1-462): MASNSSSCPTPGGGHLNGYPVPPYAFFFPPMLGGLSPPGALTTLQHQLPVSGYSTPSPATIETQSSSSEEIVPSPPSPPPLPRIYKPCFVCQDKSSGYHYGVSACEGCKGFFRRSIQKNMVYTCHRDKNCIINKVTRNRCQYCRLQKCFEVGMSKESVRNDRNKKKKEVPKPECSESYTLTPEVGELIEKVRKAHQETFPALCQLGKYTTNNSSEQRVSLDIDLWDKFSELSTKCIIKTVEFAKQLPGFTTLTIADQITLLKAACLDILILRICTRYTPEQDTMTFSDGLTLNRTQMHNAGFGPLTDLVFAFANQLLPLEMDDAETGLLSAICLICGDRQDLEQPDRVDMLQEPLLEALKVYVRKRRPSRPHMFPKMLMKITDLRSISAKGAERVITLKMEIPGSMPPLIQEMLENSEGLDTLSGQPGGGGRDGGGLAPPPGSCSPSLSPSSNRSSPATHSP
T1 sequence (P19793 1-462 partner): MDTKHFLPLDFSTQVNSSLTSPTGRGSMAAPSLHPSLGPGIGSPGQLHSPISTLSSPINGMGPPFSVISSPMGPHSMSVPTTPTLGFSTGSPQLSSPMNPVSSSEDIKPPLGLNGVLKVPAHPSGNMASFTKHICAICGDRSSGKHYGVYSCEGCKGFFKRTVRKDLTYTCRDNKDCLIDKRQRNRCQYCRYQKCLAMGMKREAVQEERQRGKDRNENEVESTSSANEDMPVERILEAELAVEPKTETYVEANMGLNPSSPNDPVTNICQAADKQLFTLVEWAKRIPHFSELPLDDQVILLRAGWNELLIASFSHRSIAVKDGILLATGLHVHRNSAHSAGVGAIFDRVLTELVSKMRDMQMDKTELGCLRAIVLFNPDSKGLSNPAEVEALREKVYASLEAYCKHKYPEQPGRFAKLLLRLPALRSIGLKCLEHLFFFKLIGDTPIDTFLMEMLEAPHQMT
Text: Compounds can be evaluated for binding to RARα, β and γ by measuring their ability to competitively bind to the RAR receptors when dimerized with the binding partner RXRα. Competitive binding assays may be carried out by Scintillation Proximity Assay (SPA) technology using the RARα, β or γ heterodimer (with RXRα as a partner with all the RARs) receptors prepared in a baculovirus expression system. Use the biotinylated oligonucleotide: 5′-[…]-3′ for binding of receptor to yttrium silicate streptavidin-coated SPA beads. Per well, preincubate […] with 82.7 μg SPA beads in a binding buffer containing 10 mM HEPES pH 7.8, 80 mM KCl, 0.5 mM MgCl2, 1 mM DTT, 0.5% CHAPS and 16.6 μg bovine serum albumin for 30 min at room temperature. Then spin the mixture at 2,000 rpm for 3 min to pelletize the beads-oligo mix. Remove the supernatant and resuspend the beads-oligo pellet in the same binding buffer as above, but which in addition now also contain 14% glycerol, 5 μg of sheared salmon sperm DNA, 0.5 μg of RARα, 1.0 μg of RARβ, or 0.25 μg of RARγ receptor, respectively. Carry out the binding assays in the presence of ˜11.3 μCi of ^3H 4-[(E)-2-(5,6,7,8-tetrahydro-5,5,8,8-tetramethyl-2-naphthalenyl)-1-propenyl]benzoic acid (TTNPB), and multiple concentrations of test compound ranging from (5 nM to 10 μM). Non-specific binding may be determined in the presence of 1 μM unlabeled TTNPB. Use the data to calculate an IC50 for compounds after fitting the dose-response curves to a 4-parameter logistic fit. Use the Cheng-Prusoff equation to convert IC50 (nM) values for compounds to Ki, and the Kd may be determined by saturation binding.

Ki [2] [nM]	SMILES	inhibition of pain (hind paw weight bearing differential) compared to vehicle [1]
> 970	CN1CCN(C(=O)c2ccc(-n3nc(-c4ccc(C(=O)O)cc4)cc3-c3cc(C(C)(C)C)cc(C(C)(C)C)c3)cc2)CC1 [Example 1, 4-[5-(3,5-Di-tert-butylphenyl)-1-[4-(4-methylpiperazine-1-carbonyl)phenyl]pyrazol-3-yl]benzoic Acid]	significantly inhibits pain
357	CC(C)(C)c1cc(-c2cc(-c3ccc(C(=O)O)cc3)nn2-c2ccc(C(=O)N3CCOCC3)cc2)cc(C(C)(C)C)n1 [Example 8, 4-[5-(2,6-Di-tert-butyl-4-pyridyl)-1-[4-(morpholine-4-carbonyl)phenyl]pyrazol-3-yl]benzoic acid]	–
386	CC(C)Sc1cc(-c2cc(-c3ccc(C(=O)O)cc3)nn2-c2ccc(C(=O)N(C)C)cc2)cc(C(C)(C)C)c1 [Example 12, 4-[5-(3-tert-Butyl-5-isopropylsulfanyl-phenyl)-1-[4-(dimethylcarbamoyl)phenyl]pyrazol-3-yl]benzoic Acid]	–
285	CC(C)(C)c1cc(-c2cc(-c3ccc(C(=O)O)cc3)nn2-c2ccc(S(C)(=O)=O)cc2)cc(C(C)(C)C)c1 [Example 19, 4-[5-(3,5-Di-tert-butylphenyl)-1-(4-methylsulfonylphenyl)pyrazol-3-yl]benzoic Acid]	–
